Read-outs that look alike come from different tables or passages of the source.
Tests used:
[1] = system: U‐251 MG and HEK293 cells; experiment: Statistical comparison of dose–response in U‐251 MG versus HEK293 (selectivity, HIT criteria); type: cell-based, human; details: for Selectivity for cancer cells with IC50 < 50 [µM]‐Yes/No: HEK293 IC50 higher than U‐251 MG IC50, U‐251 MG IC50 below 50 µM; for All criteria met -Yes/No: HIT criteria and statistical testing, Table S1
U‐251 MG cells [2] = system: U‐251 MG cells; set-up: method as in He and colleagues (2021); details: after 2 days of treatment; ref He and colleagues (2021); read-out: cytotoxicity against U‐251 MG cells (IC50); cited from earlier work
HEK293 cells = experiment: MTT cell viability assay, noncancerous HEK293 cells, 5 days treatment; type: cell-based, human; details: for IC50: 5 days treatment, 100–0 µM; for cytotoxicity / biological response in HEK293, in words: 5 days, up to 100 µM, threshold 50 µM
Method: (§1) Dose–response curves for each of the pyrazolo[1,5‐α]pyrimidinones were performed to determine the cytotoxic effect of the compounds on a cancerous, U‐251 MG cell line and a noncancerous, HEK293 cell line. The synthesized pyrazolopyrimidinones were dissolved in DMSO (Merck) to obtain a stock solution which was stored at −20 °C. […] U‐251 MG and HEK293 cells were seeded at a density of 2 x 10^3 cells per well (100 μL) in a 96‐well plate (Sarstedt) and incubated for 24 h prior to each treatment to allow for cell adhesion. The stock solution was diluted in media to working concentrations of 100, 75, 50, 25, 10, 5, and 0.1 μM. Media on the seeded cells was then replaced with the working concentrations of the compound or the controls in a 96‐well plate (100 μL). The treated plate was incubated at 37 °C in the humidified incubator for 5 days. Cell viability was assessed after 5 days using the MTT assay. Dose–response curves were then plotted relative to the positive control whereby cells were treated 20% DMSO and a negative control whereby cells were maintained in fresh DMEM.
(§2) To determine the extent of the cytotoxic effect of the pyrazolopyrimidinone on each cell line, the cell viability at each working concentration was determined via the MTT assay (Merck). The working solution of MTT used was 5 mg MTT per 1 ml of PBS diluted in 9 ml of media. After 5 days of incubation, the treatment was removed from each of the wells and replaced with 100 μL of fresh MTT solution. The plate was then incubated for 3 h at 37 °C in a humidified incubator to allow the reduction of the yellow tetrazolium salt to purple formazan crystals. After the incubation, the MTT solution was removed from the wells and replaced with 100 μL of DMSO for 15 min to dissolve the formazan crystals. The absorbance was read at 570 nm using a spectrophotometric microplate reader (Thermo Fisher Scientific).
(§3) Each of the experiments was performed at least three independent times, with a minimum of six technical replicates per experiment. Statistical analysis was carried out using GraphPad Prism version 8.0.0 (GraphPad Softwares, Inc.). Curve fitting and the IC50 values were obtained through the dose–response curves using nonlinear regression. To determine if the dose–response curves were statistically distinct and not overlapping, extra sum‐of‐squares F‐test was used, and a p‐value was obtained. The effect of compound treatment on both cell lines was statistically compared via two‐way ANOVA with Tukey's post‐test. The CytExpert (Beckman Coulter) software was used for flow cytometry analysis. Graphs represent the % dead cells whereby the total number of dead cells was divided by the total cell population. The statistical significance of the flow cytometry results was determined via one‐way analysis of variance (ANOVA) with Dunnett's T3 multiple comparison post‐test. Data is presented as the mean ± standard error of mean (SEM). Summary of results from statistical analysis reports p‐values as follows: ≥0.05 (ns), 0.01–0.05 (*), 0.001–0.01 (**), […], and <0.0001(****).

U‐251 MG cells [3] = experiment: MTT cell viability assay, U‐251 MG glioblastoma cells, 5 days treatment; type: cell-based, human; details: 5 days treatment, 100–0 µM
Method: as §1, §2, §3

U‐251 MG cells [4] = experiment: JC‐1 flow cytometry, mitochondrial membrane depolarization / apoptosis; type: cell-based, human; details: 5 days; for JC-1: significance of cell death, Neg Ctrl v HNT / JC-1: significance of cell death, Neg Ctrl v 50 µM: U‐251 MG; for JC-1: significance of cell death, Neg Ctrl v 50 µM: highest toxic concentration 50 µM; for apoptosis observed (JC-1): example analysis, negative control 8.64 %
Method: JC‐1 dye forms aggregates in healthy mitochondria which changes the fluorescent property of the dye. […] Stock solutions of JC‐1 dye (Merck) were prepared at 1 mg/mL in DMSO and stored at −20 °C. U‐251 MG cells were seeded in 6‐well plates (Sarstedt) at a seeding density of 2 x 10^4 cells per well (1000μL) after which cells were treated with drug concentrations (highest toxic, IC50, nontoxic). After 5 days incubation, the compound and wash step with PBS was collected in falcon tubes. The cells were then harvested by trypsinization (500 μL), incubated for a period of 6 min, neutralized with media (1000 μL), and pelleted at 1200rpm for 5 min. A JC‐1 working solution of 2 μg/mL was made up in DMEM and was light protected. The cell pellet was resuspended and stained with 2 μg/mL JC‐1 dye and incubated and protected from the light for a period of 10 min. Cells were then centrifuged at 1200rpm for 5 min. The supernatant was removed, and cells were washed with 1 mL of sterile PBS. This was repeated twice. […] Cells were also treated using controls whereby the positive control used was DMEM and 20% DMSO and the negative control used was fresh media. The cells were then analyzed using flow cytometry (Beckmann Coulter, CytExpert version 2.4.0.28). Fluorescence was measured using FL1 (FITC) (530 nm) and FL2 (PE) (595 nm) channels with emission.
as §3

U‐251 MG cells [5] = experiment: Propidium iodide (PI) flow cytometry, cell membrane permeabilization; type: cell-based, human; details: 5 days; for PI: significance of cell death, Neg Ctrl v HNT: highest non-toxic concentration; for PI: significance of cell death, Neg Ctrl v 50 µM: highest toxic concentration 50 µM
Method: Propidium iodide (PI) is a DNA staining, cell membrane impermeable dye which was used to assess cell death via loss of membrane integrity and is used to indicate necrotic or late apoptotic cells. Stock solutions of PI dye (Merck, Ireland) were prepared at 10 μg/mL in PBS and stored at −20 °C. U‐251 MG cells were seeded in 96‐well plates at a seeding density of 2 x 10^3 cells per well (100 μL), as previously stated. […] Subsequently, the compound was collected in 15 ml falcon tubes. Cells were washed with PBS (100 μL), and the PBS was collected in corresponding tubes to ensure all cells are collected. The cells were collected using 0.25% trypsin‐EDTA (50 μL) with a 6‐min incubation and media neutralization (100 μL). Each tube was centrifuged at 1200rpm for 5 min to obtain a pellet. The supernatant was removed, and the pellet was resuspended in PBS and transferred to an Eppendorf tube. Ten microliters of PI stain (2.5 μg/ml) was added to the Eppendorf tubes, and the tubes were incubated for a period of 15 min. Cells were also treated using controls whereby the positive control used was DMEM and 20% DMSO and the negative control used was fresh media. The cells were then analyzed using flow cytometry (Beckmann Coulter, CytExpert version 2.4.0.28). Fluorescence was measured using the FL2 channel. PI was detected in the red channel which is R‐phycoerythrin (PE‐Cy5). PE was used in combination with fluorescein isothiocyanate (FITC) and is excited at a wavelength of 488 nm.
as §3

[6] = highest non-toxic concentration

Row | SMILES | Selectivity for cancer cells with IC50 < 50 [µM]‐Yes/No [1] | All criteria met -Yes/No [1] | IC50 (U‐251 MG cells [2]) | IC50 (HEK293 cells; Homo sapiens, HEK293, 120 h) | IC50 (U‐251 MG cells [3]; Homo sapiens, U-251, 120 h) | JC-1: significance of cell death, Neg Ctrl v HNT (U‐251 MG cells [4]; [6]) | JC-1: significance of cell death, Neg Ctrl v 50 µM (U‐251 MG cells [4]) | cell membrane permeabilization‐dependent cell death (PI), in words (U‐251 MG cells [5]) | PI: significance of cell death, Neg Ctrl v HNT (U‐251 MG cells [5]) | IC50 (HEK293 cells) | cytotoxicity / biological response in HEK293, in words (HEK293 cells) | apoptosis observed (JC-1) (U‐251 MG cells [4]; IC50 concentration) | apoptosis observed (JC-1) (U‐251 MG cells [4]; [6]) | apoptosis observed (JC-1) (U‐251 MG cells [4]; highest toxic concentration) | PI: significance of cell death, Neg Ctrl v 50 µM (U‐251 MG cells [5]) | IC50 (U‐251 MG cells [3])
1 | O=c1cc(-c2ccccc2)[nH]c2cc(-c3ccccc3)nn12 [Compound 15] | No | No | 77.7 µM | 15.9 µM | 19.9 µM | – | – | – | – | – | – | – | – | – | – | –
2 | O=c1cc(-c2cc(C(F)(F)F)cc(C(F)(F)F)c2)[nH]c2cc(-c3ccc([N+](=O)[O-])cc3)nn12 [Compound 10] | Yes | Yes | – | > 50 µM | – | * (0.01 to 0.05 (*)) | *** (0.001 to 0.01(***)) | significant cell membrane permeabilization‐dependent cell death | ns (≥0.05 (ns)) | 73.8 µM | did not elicit any biological response | – | – | – | – | –
3 | O=c1cc(-c2cc(C(F)(F)F)cc(C(F)(F)F)c2)[nH]c2cc(-c3ccccc3)nn12 [Compound 5] | Yes | Yes | – | – | – | – | – | did not induce cell death by cell wall permeabilization | – | – | did not elicit any biological response | 15.55% | 14.34% | 52.97% | – | –
4 | O=c1cc(-c2cc(C(F)(F)F)cc(C(F)(F)F)c2)[nH]c2cc(-c3cccc(Br)c3)nn12 [Compound 21, 5‐(3,5‐Bis(trifluoromethyl)phenyl)‐2‐(3‐bromophenyl)pyrazolo[1,5‐α]pyrimidin‐7(4¬H)‐one] | Yes | Yes | – | 19 µM | 0.714 µM | *** (0.001 to 0.01(***)) | *** (0.001 to 0.01(***)) | significant cell membrane permeabilization‐dependent cell death | ns (≥0.05 (ns)) | – | – | – | – | – | **** (<0.0001(****)) | 0.71 µM
5 | O=c1cc(-c2cc(C(F)(F)F)cc(C(F)(F)F)c2)[nH]c2cc(-c3ccc(Br)cc3)nn12 [Compound 7] | Yes | Yes | – | > 50 µM | < 50 µM | ns (≥0.05 (ns)) | **** (<0.0001(****)) | significant cell membrane permeabilization‐dependent cell death | * (0.01 to 0.05 (*)) | 60.9 µM | did not elicit any biological response | – | – | – | – | 29.8 µM
6 | O=c1cc(-c2cc(C(F)(F)F)cc(C(F)(F)F)c2)[nH]c2cc(-c3ccccc3Br)nn12 [Compound 22] | Yes | Yes | – | 66.9 µM | 2.79 µM | ns (≥0.05 (ns)) | * (0.01 to 0.05 (*)) | significant cell membrane permeabilization‐dependent cell death | – | – | – | – | – | – | **** (<0.0001(****)) | 2.79 µM
7 | O=c1cc(-c2cc(C(F)(F)F)cc(C(F)(F)F)c2)[nH]c2cc(-c3ccc(C(F)(F)F)cc3)nn12 [Compound 9] | Yes | Yes | – | > 50 µM | 26.8 µM | ns (≥0.05 (ns)) | ** (0.001 to 0.01 (**)) | significant cell membrane permeabilization‐dependent cell death | ns (≥0.05 (ns)) | 54.4 µM | did not elicit any biological response | – | – | – | **** (<0.0001(****)) | 27.5 µM

Source: PMC12530846, “Development of Novel Anticancer Pyrazolopyrimidinones Targeting Glioblastoma” (Chemmedchem, 2025)
